# Experimental data taken from patent US12528822B2, “Cycloalkane-1,3-diamine derivative” (Daiichi Sankyo Company, Limited, priority 2018, dated 2026).
# Structures can show the parent of a compound that is named as a salt. Where two headings read alike, the source gives them in different places.
# Legend:
# [1] = system: MLL-AF9-overexpressing AML-like cells (MA9 cells); experiment: Differentiation-inducing activity in MLL-AF9-overexpressing AML-like cells (flow cytometry of Gr-1 and cKit); assay type: cell-based, mouse; conditions: 7 days, 5 or 20 nM (Ex. 25, 27), 150 or 300 nM (Ex. 26), 50 or 100 nM (Ex. 22), compared with the control group (DMSO); for rate of the myeloid cell differentiation antigen Gr-1-expressing cells in living cells: FIG. 10; for rate of the cKit-expressing cells in living cells: FIG. 11
# Procedure: The human MLL-AF9 fusion gene was introduced into cKit-positive mononuclear cells isolated from the myeloid of C57BL6 mouse, by retrovirus infection. MLL-AF9-overexpressing AML-like cells (MA9 cells) that acquired abnormal growth ability were established by liquid-culturing the cells after virus infection for a long period of time. Serum-free medium (GlutaMax, P/S, Stem Pro-34 medium containing 10 ng/ml mIL-3, 50 ng/mL mSCF and 10 ng/mL human Oncostatin M) was used as a culture medium.
# (2 μL/well) (day 0). After culturing for 7 days (day 7), the cells were collected, and blocked with 5% FBS/PBS containing 10% Mouse BD Fc Block (BD) for 10 minutes at room temperature, and then any of various antibodies (Gr-1-FITC or CD117 (cKit)-APC: Biolegend) was added thereto at a final concentration of 0.4 μg/sample, and the mixture was reacted on ice for 30 minutes. Then, dead cell staining dye DAPI (0.2 mg/mL) was added thereto at so as to be 1 μL/sample, and the reaction was carried out on ice for additional 2 minutes under shading. Then, the expression level of each surface antigen of the cells was measured by NovoCyte flow cytometer (LMS). The obtained data were analyzed by FlowJo software (Becton Dickinson), and the rate of each surface antigen-expressing cells in the living cells excluding dead cells was graphed.
# K562 cells = experiment: Cell growth inhibitory activity, K562 cells (CellTiter-Glo, 384-well); assay type: cell-based; conditions: Homo sapiens
# Procedure: (§1) Each cell was purchased from American Type Culture Collection (ATCC). […] The prepared drug-containing plate was stored at −30° C. until use, and thawed before use.
# (§2) The suspension of each cells was prepared with 10% FBS RPMI1640 culture medium so as to be 1000 cells/mL (K562) or 10000 cells/mL (MV-4-11, MOLM-13), and seeded on the drug-containing plate (40 μL/well) (day 0). The cells were cultured for additional 3 or 7 days. ATP measurement reagent (CellTiter-Glo (registered trademark, Promega Corporation) 2.0 Assay, model number G9242, Promega Corporation) was added to each well at 10 μL/well, on the day of the drug addition (day 0) and 3 days (day 3) or 7 days (day 7) after the drug addition. After affixing a black sticker on the bottom surface, the mixture was stirred using a microplate mixing deaeration machine (model name, Weltornado FK-62, Sakaki Dengyo Co., Ltd.) (stirring conditions, revolution 9, rotation 7, time 12).
# (§3) The cell growth of the drug-added group from day 0 to day 3 or day 7 was calculated as T/C %, when the cell growth of the drug-free group was considered as 100%.
# MV-4-11 cells = experiment: Cell growth inhibitory activity, MV-4-11 cells (CellTiter-Glo, 384-well); assay type: cell-based; conditions: Homo sapiens
# Procedure: as §1, §2, §3
# MOLM-13 cells = experiment: cells; assay type: cell-based; conditions: Homo sapiens
# Procedure: as §1, §2, §3
# [2] = target: T1, menin (Flag tagged) and biotinylated MLL1 peptide (1-46aa) (Homo sapiens, UniProt O00255); experiment: biochemical
# T1 sequence (O00255 1-610): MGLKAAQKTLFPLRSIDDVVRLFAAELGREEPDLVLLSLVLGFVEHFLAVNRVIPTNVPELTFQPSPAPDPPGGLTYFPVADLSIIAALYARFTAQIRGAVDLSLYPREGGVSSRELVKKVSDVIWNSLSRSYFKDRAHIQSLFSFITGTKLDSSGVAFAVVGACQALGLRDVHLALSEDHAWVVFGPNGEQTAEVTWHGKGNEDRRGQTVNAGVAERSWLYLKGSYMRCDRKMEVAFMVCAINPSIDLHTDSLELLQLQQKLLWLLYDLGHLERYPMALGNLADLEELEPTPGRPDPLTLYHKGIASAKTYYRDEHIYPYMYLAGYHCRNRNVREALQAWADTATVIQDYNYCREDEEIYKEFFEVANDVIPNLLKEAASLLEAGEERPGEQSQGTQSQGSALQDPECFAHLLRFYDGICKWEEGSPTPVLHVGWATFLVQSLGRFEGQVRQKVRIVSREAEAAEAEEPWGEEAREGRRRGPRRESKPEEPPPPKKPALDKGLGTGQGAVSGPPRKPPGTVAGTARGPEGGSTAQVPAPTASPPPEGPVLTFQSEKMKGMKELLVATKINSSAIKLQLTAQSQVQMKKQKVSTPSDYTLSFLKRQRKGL
# Procedure: Then, the fluorescence signal by AlphaLISA (registered trademark, PerkinElmer Co., Ltd.) was measured using a plate reader (PerkinElmer Co., Ltd., EnVisionXcite).
Compound,rate of the myeloid cell differentiation antigen Gr-1-expressing cells in living cells [1],rate of the cKit-expressing cells in living cells [1],"GI50 (K562 cells; 72 h, K562, Day 3, read-out: GI50 (μM) Day 3 K562) [µM]","GI50 (K562 cells; 168 h, K562, Day 7, read-out: GI50 (μM) Day 7 K562) [µM]","GI50 (MV-4-11 cells; 72 h, MV4;11, Day 3, read-out: GI50 (μM) Day 3 MV4) [µM]","GI50 (MV-4-11 cells; 168 h, MV4;11, Day 7, read-out: GI50 (μM) Day 7 MV4) [µM]","GI50 (MOLM-13 cells; MOLM-13, 72 h, read-out: GI50 (μM) Day 3 MOLM-13) [µM]","GI50 (MOLM-13 cells; MOLM-13, 168 h, read-out: GI50 (μM) Day 7 MOLM-13) [µM]",IC50 [2] [µM]
"COc1cc(-c2ccc(CN[C@H]3C[C@@H](O)[C@@H](N(C)c4ncnc5sc(CC(F)(F)F)cc45)C3)cc2)cnc1C#N [Example 22, 5-[4-({[(1R,3R,4S)-3-hydroxy-4-{methyl[6-(2,2,2-trifluoroethyl)thieno[2,3-d]pyrimidin-4-yl]amino}cyclopentyl]amino}methyl)phenyl]-3-methoxypyridine-2-carbonitrile Hydrochloride]",increased the rate of Gr-1-positive cells,reduced the rate of cKit-positive cells,–,–,–,–,–,–,–
"COc1cc(-c2ccc(CN[C@H]3C[C@@H](O)[C@@H](N(C)c4ncnc5sc(CC(F)(F)F)cc45)C3)cc2)nnc1OC [Example 25, (1R,2S,4R)-4-({[4-(5,6-dimethoxypyridazin-3-yl)phenyl]methyl}amino)-2-{methyl[6-(2,2,2-trifluoroethyl)thieno[2,3-d]pyrimidin-4-yl]amino}cyclopentan-1-ol Hydrochloride]",increased the rate of Gr-1-positive cells,reduced the rate of cKit-positive cells,–,–,–,–,–,–,–
"COc1nc(N(C)[C@H]2C[C@@H](NCc3ccc(-c4cc(OC)c(OC)nn4)cc3)C[C@H]2O)c2cc(CC(F)(F)F)sc2n1 [Example 27, (1R,2S,4R)-4-({[4-(5,6-dimethoxypyridazin-3-yl)phenyl]methyl}amino)-2-{[2-methoxy-6-(2,2,2-trifluoroethyl)thieno[2,3-d]pyrimidin-4-yl](methyl)amino}cyclopentan-1-ol Hydrochloride]",increased the rate of Gr-1-positive cells,reduced the rate of cKit-positive cells,–,–,–,–,–,–,–
"FC(F)(F)Cc1cc2c(N[C@@H]3CCC[C@H](NCc4ccc(NC5CCCCC5)cc4)C3)ncnc2s1 [Example 44, (1S,3R)-N^1-{[4-(cyclohexylamino)phenyl]methyl}-N^3-[6-(2,2,2-trifluoroethyl)thieno[2,3-d]pyrimidin-4-yl]cyclohexane-1,3-diamine hydrochloride]",–,–,2.75,1.91,1.89,1.53,2.73,2.93,0.335
